Measured values published in US9505779B2 (EWHA University—Industry Collaboration Foundation, priority 2010, dated 2016).
Entries after “also recorded” stand apart in the source; their conditions may differ.

Columns and labels:
[1] = tested on: human neuroblastoma SH-SY5Y cells; test: In vitro neurite outgrowth assay using human neuroblastoma cells; format: cell-based; conditions: for neurite processes compared with cells treated with NGF alone (micrographs, FIG. 8) / neurite outgrowth activity: SH-SY5Y; for neurite processes compared with cells treated with NGF alone (micrographs, FIG. 8): NGF plus 1 nM compound, after 96 h of cultivation; for neurite outgrowth activity: NGF
Description: The relative nerve regeneration activities of the mutasynthetic analogues, 36-methyl-FK506 and 36-fluoro-FK520, compared with authentic K506 and FK520, were determined using human neuroblastoma cells. […] The cells (n=90) were randomly photographed after 96 hr of cultivation, then the number of cells with outgrowth was counted. The neurite lengths were measured on photographic prints. Duplicate wells were run in all experiments, and the entire experiment was replicated three times. Neurite length estimated from samples treated with NGF alone was used as a control (FIGS. 7 and 8).
(§1) For statistical comparisons of group differences, especially for both the T cell activation and neurite outgrowth assays, quantitative data were analyzed by one-way analysis of variance (ANOVA) followed by Fisher's t-test according to the statistical program SigmaStat® (Jandel Scientific; version 3.1).

[2] = tested on: CD3/CD28-stimulated human T lymphocytes; test: In vitro T-cell activation assay (interleukin-2 secretion, ELISA); format: cell-based; conditions: human T-cells activated with CD3/CD28 antibodies, 0.1 and 1.0 nM compound, 16 to 20 hr; for in vitro immunosuppressive activity (interleukin-2 secreted from activated T-cells) as compared with the control group: control = activated cells without compound
Description: After removal of cell debris by routine centrifugation, the supernatant was subjected to ELISA (R&D Systems) to quantify the level of interleukin-2 secreted from activated T-cells. The level of interleukin-2 obtained from T cells activated with CD3/CD28 without further treatment with the above compounds was used as a control (FIG. 7).
as §1

CO[C@H]1C[C@@H](C)C/C(C)=C/[C@@H](CCF)C(=O)C[C@H](O)[C@@H](C)[C@@H](/C(C)=C/[C@@H]2CC[C@@H](O)[C@H](OC)C2)OC(=O)[C@@H]2CCCCN2C(=O)C(=O)[C@]2(O)O[C@H]1[C@@H](OC)C[C@H]2C [36-fluoro-FK520]
neurite processes compared with cells treated with NGF alone (micrographs, FIG. 8) [1]: longer
neurite outgrowth activity ([1]; 1 nM compound): strong neurite outgrowth activity
in vitro immunosuppressive activity (interleukin-2 secreted from activated T-cells) as compared with the control group [2]: have the immunosuppressive activity

C=C(C)C[C@@H]1/C=C(\C)C[C@H](C)C[C@H](OC)[C@H]2O[C@@](O)(C(=O)C(=O)N3CCCC[C@H]3C(=O)O[C@H](/C(C)=C/[C@@H]3CC[C@@H](O)[C@H](OC)C3)[C@H](C)[C@@H](O)CC1=O)[C@H](C)C[C@@H]2OC [36-methyl-FK506]
greater effect on neurite outgrowth compared with FK506 ([1]; SH-SY5Y treated with nerve growth factor (10 ng/ml), 1 nM compound, 96 hr): ~20%
neurite processes compared with cells treated with NGF alone (micrographs, FIG. 8) [1]: longer
neurite outgrowth activity ([1]; 1 nM compound): strong neurite outgrowth activity
in vitro immunosuppressive activity (interleukin-2 secretion) against FK506 and FK520 [2]: not improved
in vitro immunosuppressive activity (interleukin-2 secreted from activated T-cells) as compared with the control group [2]: significant immunosuppressive activity; also recorded: have the immunosuppressive activity

C=CC[C@@H]1/C=C(\C)C[C@H](C)C[C@H](OC)[C@H]2O[C@@](O)(C(=O)C(=O)N3CCCC[C@H]3C(=O)O[C@H](/C(C)=C/[C@@H]3CC[C@@H](O)[C@H](OC)C3)[C@H](C)[C@@H](O)CC1=O)[C@H](C)C[C@@H]2OC [FK506, tacrolimus, reference compound]
neurite processes compared with cells treated with NGF alone (micrographs, FIG. 8) [1]: longer

CC[C@@H]1/C=C(\C)C[C@H](C)C[C@H](OC)[C@H]2O[C@@](O)(C(=O)C(=O)N3CCCC[C@H]3C(=O)O[C@H](/C(C)=C/[C@@H]3CC[C@@H](O)[C@H](OC)C3)[C@H](C)[C@@H](O)CC1=O)[C@H](C)C[C@@H]2OC [FK520, ascomycin, reference compound]
neurite processes compared with cells treated with NGF alone (micrographs, FIG. 8) [1]: exception
